Experimental data published in patent US12433902B2, “Liposomal formulations for inhibiting SARS-CoV-2 replication and reducing lung inflammation” (priority 2021, dated 2025).
Structures can show the parent of a compound that is named as a salt.

Key:
SARS-CoV-2 = conditions: cited from earlier work
[1] = Toxicity observation at the 20 μg dose of BUD; assay type: in vivo, C57BL/6 mice; conditions: 20 μg dose of BUD
[2] = cited from earlier work

CN(C)C(=O)COC(=O)Cc1ccc(OC(=O)c2ccc(NC(=N)N)cc2)cc1 [camostat mesylate]
SARS-CoV-2 growth (SARS-CoV-2; high doses (e.g., 100 μg/mL)): reduce SARS-CoV-2 growth partially

human recombinant soluble ACE2: human recombinant soluble ACE2
viral growth in vitro (SARS-CoV-2): reduces viral growth in vitro

CCCC1O[C@@H]2C[C@H]3[C@@H]4CCC5=CC(=O)C=C[C@]5(C)[C@H]4[C@@H](O)C[C@]3(C)[C@]2(C(=O)CO)O1 (some centres unmarked) [budesonide]
toxicity to the spleen, liver, bone marrow, skin or the gastrointestinal tract [1]: without evidence of toxicity
half-life ([2]; BUD alone in the lungs): about 36 hours
effective life in the lungs ([2]; BUD alone): slightly more than one day
